# Experimental data published in patent publication US20110301102A1, “COMPOSITIONS AND METHODS FOR TREATING MYELODYSPLASTIC SYNDROME” (Telik, Inc., priority 2010, published 2011).
# Experiments:
# [1] = tested on: patients with MDS (IPSS low and intermediate-1 risk); conditions: one patient (Quddus et al.); cited from earlier work
# [2] = tested on: patients with MDS (IPSS low and intermediate-1 risk); experiment: Clinical study of Telintra (ezatiostat hydrochloride) in patients with MDS, two dosing schedules; conditions: for patients with significant RBC transfusion reduction: 5 of 11 patients
# Method: Eighty-seven patients were randomized and treated at 23 investigational sites. After initial dose ranging in 14 patients, two dose levels were selected for further study. Subsequently, 37 patients were treated at 3 grams daily for two weeks followed by a one week rest period, and 36 patients were treated at 2 grams daily for three weeks followed by a one week rest period. The data on these 73 patients was pooled for this preliminary analysis.
# The median age was 72 years, with a patient population distribution of International Prognostic Scoring System (IPSS) low risk (23 patients, 32%) and intermediate-1 risk (50 patients, 68%).
smiles,measurement,setting,value
"CCOC(=O)[C@@H](N)CCC(=O)N[C@@H](CSCc1ccccc1)C(=O)N[C@@H](C(=O)OCC)c1ccccc1 [Telintra®, ethyl (2S)-2-amino-5-[[(2R)-3-benzylsulfanyl-1-[[(1R)-2-ethoxy-2-oxo-1-phenylethyl]amino]-1-oxopropan-2-yl]amino]-5-oxopentanoate]",duration of complete remission following discontinuation of therapy,[1],more than 12 months
same,"Duration of HI-E Response, Median (95% CI)",[2]; 1 g b.i.d. (2 grams per day) 3 weeks on & 1 week off,46.1 (10.0-46.1) Weeks
same,"Duration of HI-E Response, Median (95% CI)",[2]; 1.5 g b.i.d. (3 grams per day) 2 weeks on & 1 week off,18.4 (3.1-51.0) Weeks
same,patients achieving RBC transfusion independence,"[2]; 4 of 38 RBC transfusion-dependent patients, pooled",11%
same,"patients with clinically significant RBC transfusion reductions (reduction of 4 U/8 weeks, IWG 2006)","[2]; 11 of 38 RBC transfusion-dependent patients, pooled",29%
same,effect of prior DMTI treatment on GI adverse events,[2]; all patients treated,increased incidence of GI AEs
same,"incidence of diarrhea, Grade 1",[2]; all patients treated,25%
same,"incidence of diarrhea, Grade 2",[2]; all patients treated,7%
same,"incidence of diarrhea, Grade 3",[2]; all patients treated,3%
same,"incidence of nausea, Grade 1",[2]; all patients treated,45%
same,"incidence of nausea, Grade 2",[2]; all patients treated,16%
same,"incidence of nausea, Grade 3",[2]; all patients treated,1%
same,"incidence of vomiting, Grade 1",[2]; all patients treated,30%
same,"incidence of vomiting, Grade 2",[2]; all patients treated,12%
same,"incidence of vomiting, Grade 3",[2]; all patients treated,2%
same,number of cytogenetic complete responses,"[2]; all patients, pooled",three
same,effect of prior Revlimid treatment on HI-E response,[2]; logistic regression analysis,enhance HI-E response
same,change in the odds for a HI-E response with prior DMTI treatment,"[2]; logistic regression analysis, p=0.023",five-fold decrease
same,patients with significant RBC transfusion reduction,"[2]; no prior Revlimid, no prior DMTI",45%
same,number of patients with complete cytogenetic response,[2]; of the four patients with del 5q minus,two
same,patients achieving transfusion independence,"[2]; prior Revlimid, no prior DMTI, 3 of 11 patients",27%
same,patients with significant RBC transfusion reduction,"[2]; prior Revlimid, no prior DMTI",45%
